Where “and” joins values, the source holds several entries; their conditions need not be identical. Equal values may be shown once. Entries after “also recorded” stand apart in the source; their conditions may differ.
Experiments:
MDA-MB-231 = assay: MTT growth assay, MDA-MB-231 line; assay type: cell-based; details: MTT assay at 24 hours, 10% FBS
Protocol: FIG. 30 illustrates HBB inhibits proliferation of MCF7 and MDA-MB-231 lines. Cells were plated in complete media in the presence of serum (10% FBS) and cultured at 37° C. with 5% CO2 and treated with HBB or DMSO vehicle. Growth was measured at 24 hours by MTT assay. Results were converted to percent growth of control and represented as mean±S.E. (n=8).

CYP3A4 epoxygenase = CYP3A4 epoxygenase (Homo sapiens, UniProt P08684); assay: CYP3A4 Supersome epoxygenase assay: EET synthesis from arachidonic acid, LC-ESI-MS/MS
Chain of CYP3A4 epoxygenase (P08684 whole entry): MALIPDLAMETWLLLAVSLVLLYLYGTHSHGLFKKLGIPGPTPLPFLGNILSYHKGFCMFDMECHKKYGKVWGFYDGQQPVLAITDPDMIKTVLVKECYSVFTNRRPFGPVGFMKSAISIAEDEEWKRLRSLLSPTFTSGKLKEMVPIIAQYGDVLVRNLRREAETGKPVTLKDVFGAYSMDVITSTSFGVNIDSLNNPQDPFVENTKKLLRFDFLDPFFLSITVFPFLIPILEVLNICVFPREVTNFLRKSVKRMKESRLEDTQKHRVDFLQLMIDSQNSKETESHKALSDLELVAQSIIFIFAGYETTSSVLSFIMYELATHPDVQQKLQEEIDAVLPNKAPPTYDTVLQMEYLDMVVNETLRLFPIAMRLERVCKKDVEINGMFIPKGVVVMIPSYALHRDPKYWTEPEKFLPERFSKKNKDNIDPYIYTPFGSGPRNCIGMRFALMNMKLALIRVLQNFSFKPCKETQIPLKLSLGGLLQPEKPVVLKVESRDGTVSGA
Protocol: Measurements are reported as percentage of control reactions performed with vehicle but no compound. A ^13C-EET recovery standard was used to control for recovery of EETs from extractions. […] EET measurements in these Supersome experiments are expressed as percentage of control reactions. Absolute EET measurements are determined by subtraction of regioisomer values in a baseline reaction lacking NADPH. Measurements were performed in triplicate and values are expressed as the mean±SD.
After the reaction, EETs were then extracted with 1 mL dichloromethane and reconstituted in methanol and analyzed by LC-ESI-MS/MS.

MCF7 = assay: Cell cycle analysis by flow cytometry, MCF7; assay type: cell-based; details: MCF7, HBB 20 uM, 6 hours
Protocol: Cells in log phase growth treated with HBB (20 uM) or DMSO for 6 hours were trypsinized and fixed in 70% ethanol at 4° C. overnight. The cells were washed with cold PBS and resuspended in Nicoletti buffer (50 μg/ml propidium iodide, 0.1% Triton X-100, 0.1% sodium citrate, pH 7.4, and 1 mg/ml RNase). The samples were then analyzed by flow cytometry (BD Biosciences), and data were analyzed using FlowJo software (Tree Star). Representative profile are shown.

[1] = HBB concentration after ip administration, MCF-7 model; design: species or system mice; details: nude, mouse, in vivo, intraperitoneal, 4 mg/kg/day ip, read-out: Concentration of HBB 1 hour following ip administration
Protocol: Concentration of HBB 1 hour following ip administration was 0.527 uM as measured in the MCF-7 model. HBB was administered ip at 4 mg/kg/day in both models, which is the MTD for that dose, route and schedule.

CD31 = assay: Angiogenesis by CD31 staining, MCF-7 xenograft tumors; assay type: in vivo, mice; details: MCF-7 model, HBB 4 mg/kg/day ip vs PBS
Protocol: Xenogaft tumors from the MCF-7 and MDA-MB-231 models were tested for inhibition of angiogenesis by HBB using CD31 staining.
The samples were cryosectioned at 6 um and fixed with chilled 100% acetone for 10 minutes. Samples were blocked with 3% donkey serum in PBS for 30 minutes at 37 C.
The antibody used to stain CD-31 was from BD Pharmingen PE Rat anti Mouse CD31, catalog number 553373. It was used at a dilution of 1:50 in blocking buffer for 1 hour at 37 C.
The samples were then stained for 10 minutes with DAPI at a concentration of 1:2000, from Life Technologies, catalog number D1306.
Each sample was imaged in 4-5 areas. There were 3 samples per condition, PBS vs HBB.

MCF-7 cell line = assay: MTT growth assay, MCF-7 line; assay type: cell-based
Protocol: The growth of the MCF-7 line was measured by MTT assay at 24 hours. Cells were plated in complete media in the presence of serum (10% FBS) and cultured at 37° C. with 5% CO2 and treated with the biguanide or DMSO vehicle. Growth was measured at 24 hours by MTT assay.
Cells were plated in complete media in the presence of serum (10% FBS) and cultured at 37° C. with 5% CO2 and treated with HBB or DMSO vehicle. Growth was measured at 24 hours by MTT assay.

AMPK = AMPK phosphorylation Western blot in MCF7; assay type: cell-based
Protocol: Western blotting analysis was performed in triplicate.
Cells were plated in complete media in the presence of serum (10% FBS) and cultured at 37° C. with 5% CO2 and treated with biguanides for 6 hours before harvesting. Total protein was extracted and analyzed by Western-blotting with GAPDH as an internal control.
Cells were plated in complete media in the presence of serum (10% FBS) and cultured at 37° C. with 5% CO2 and treated with 14,15-EET or EtOH control for 24 hours before harvesting. Total protein was extracted and analyzed by Western-blotting with GAPDH as an internal control.

CYP3A4 nanodiscs = CYP3A4 nanodiscs (Homo sapiens, UniProt P08684); assay: CYP3A4 nanodisc spin shift titration; assay type: binding; details: vs metformin
Chain of CYP3A4 nanodiscs (P08684 whole entry): as above

[2] = system: breast cancer cells and primary cells; assay: OCR and ECAR, XF Extracellular Flux Analyzer; assay type: cell-based; details: HBB 20 uM or 40 uM vs DMSO
Protocol: Measuring glycolysis and oxidative metabolism. Cells were maintained in growth medium consisting of 10% FBS, at 37° C. with 5% CO2 and seeded at 100,000 cells per well in XF24-well cell culture microplates (for primary cells HUVEC and HDMVEC, plates were pre-coated with 0.2% college before seeding). Concentrated stocks of HBB was prepared in DMSO. HBB was diluted to 10× working concentration in XF assay medium (a non-buffered medium including 2 mM of L-glutamine but no sodium bicarbonate (buffering agent), glucose, or sodium pyruvate).
Before analysis, the cells were switched from culture medium to XF assay medium. Following baseline measurements, 75 μl of HBB prepared in assay medium was injected into each well to reach final working concentrations. Following the addition of HBB, OCR and ECAR were measured at fixed time interval.
Cells were maintained in growth medium consisting of 10% FBS, at 37° C. with 5% CO2 and seeded at 100,000 cells per well in XF24-well cell culture microplates (for HUVEC, plates were pre-coated with 0.2% college before seeding). Before analysis, the cells were switched from culture medium to XF assay medium. Following baseline measurements, 75 μl of HBB prepared in assay medium was injected into each well to reach final working concentrations. Following the addition of HBB, OCR and ECAR were measured at fixed interval. […]

CCCCCCNC(=N)NC(=N)NCc1ccccc1 [HBB, N1-hexyl-N5-benzyl biguanide]
IC50 (MDA-MB-231): 22.5 µM | IC50 (CYP3A4 epoxygenase; IC50, inhibition of CYP3A4 epoxygenase): 110 µM | fold more potent than metformin, CYP3A4 epoxygenase (CYP3A4 epoxygenase; vs metformin): 50 fold and ~40 fold | cell cycle arrest (MCF7): induces G0/G1 and G2/M cell cycle arrest | concentration at 1 h [1]: 527 nM | angiogenesis (CD31 staining) (CD31): inhibited angiogenesis in both models | IC50 (MCF-7 cell line; MTT assay at 24 hours, 10% FBS, read-out: IC50, MCF-7 growth): ~20 µM and 20 µM | fold more potent than metformin, MCF-7 growth (MCF-7 cell line; vs metformin): ~250 fold | AMPK phosphorylation relative to control (AMPK; MCF7, 6 hours, metformin, buformin, phenformin 1 mM, HBB 20 uM): more potently activates AMPK; also recorded: increased phosphorylation of AMPK | fold more potent than metformin, activation of AMPK phosphorylation (AMPK; vs metformin): ~50 fold | fold more potent than metformin, CYP3A4 nanodisc spin shift (CYP3A4 nanodiscs): ~4 fold | extracellular acidification rate (ECAR) [2]: inhibits both OCR and ECAR | oxygen consumption rate (OCR) [2]: inhibits oxygen consumption rate (OCR); also recorded: inhibits both OCR and ECAR
